Reference: patent US9750723B2, “Prevention and treatment of non-alcoholic fatty liver disease” (Ohio University, priority 2014, dated 2017)

Tests used:
[1] = system: C57BL/6J mice on the HFD; experiment: Evaluation of phenylmethimazole in preventing NAFLD in mice (Example 2); format: in vivo
Experimental: Triglycerides were quantified in accordance with the following general protocol, based upon the Salmon and Flatt Method of Liver Saponification. 50-100 mg of liver tissue was placed into an Eppendorf tube and weighed. Equal volume per weight of 3 M KOH (in 65% EtOH) was added to the tube and vortexed. The tube was placed at 70° C. for 1 hr to activate digestion. The tubes were vortexed every 15 minutes. The tube was set at room temperature overnight to allow for complete digestion, and was vortexed periodically. The sample was diluted to a final concentration of 100 mg of liver tissue per 600 μl fluid; the sample was diluted by adding 2 M Tris-HCl (un-pHed) to a final concentration of 50 mM. Where a second dilution was required, the sample was diluted using 50 mM Tris-HCl (pH 7.5). Triglycerides-GPO (0.5 mL, liquid; Pointe Scientific Cat. No. T7532-500; Fisher Scientific, Pittsburgh, Pa.) were aliquoted into Eppendorf tubes and warmed in a 37° C. water bath for 5-10 minutes. Glycerol standards (0, 1, 2.5, 5, 7.5 and 10 mmol/L) were made by diluting 10 mmol/L stock of glycerol, such as, e.g., with 50 mM Tris-HCl. 5 μL of the sample and glycerol standards (0, 1, 2.5, 5, 7.5 and 10 mmol/L) were added to 0.5 mL of the triglycerides-GPO, mixed, and incubated at room temperature for 5 minutes. The mixture was then vortexed and added (200 μL) to each well of a 96-well flat-bottom ELISA plate (in duplicate). Absorbance (i.e., optical density) was read at 500 nm. The concentrations of the samples were determined via use of a plot of glycerol standards concentration (mmol/L) with respect to optical density (i.e., O.D.) at 500 nm. The concentration of glycerol (mg glycerol/g tissue) was then calculated and triglyceride concentration was determined, in accordance with calculations known to those of ordinary skill in the art.
Experimental Protocol. 7 week old male C57BL/6J mice were placed on either a LFD (i.e., having a fat content of 10%, N=8) or a HFD (i.e., having a fat content of 60%, N=40). The mice placed on the LFD served as a control. […]
After 18 weeks, all of the C57BL/6J mice were euthanized. […] More specifically, NAFLD was evaluated in the liver tissue of the euthanized C57BL/6J mice microscopically and molecularly. Following euthanasia, the liver of each mouse was removed and divided, wherein one portion was used for the microscopic analysis of NAFLD and another portion was used for the molecular analysis of NAFLD (i.e., quantification of triglycerides). Quantification of triglycerides was performed in accordance with the general protocol described in Example 1.

[2] = system: patient at risk for developing NAFLD; experiment: Therapeutic use of phenylmethimazole to prevent development of NAFLD (Example 4); format: in vivo, human; conditions: once daily oral dose of 1 mg/kg chronically, contemplated result
Experimental: Experimental Protocol. A patient at risk for developing NAFLD is prescribed phenylmethimazole to prevent excess accumulation of fat. The patient takes a once daily oral dose of 1 mg/kg of body weight of phenylmethimazole chronically, during which fat content in the liver is determined via liver function testing, liver ultrasound, and liver biopsy.

[3] = system: patient having NAFLD; experiment: Therapeutic use of phenylmethimazole to treat NAFLD (Example 5); format: in vivo, human; conditions: once daily oral dose of 3 mg/kg for 16 weeks, contemplated result
Experimental: Experimental Protocol. A patient having NAFLD is prescribed phenylmethimazole to reduce the fat content in their liver. After determination of a baseline level of fat content in their liver, the patient takes a once daily oral dose of 3 mg/kg of body weight of phenylmethimazole for a period of 16 weeks, during which fat content in their liver tissue is determined via liver function testing, liver ultrasound, and liver biopsy.

[4] = system: C57BL/6J mice placed on an HFD; experiment: Evaluation of phenylmethimazole in treating NAFLD in C57BL/6J mice fed high fat diet (Example 3); format: in vivo; conditions: HFD mice with NAFLD, ip once daily 1, 3 or 10 mg/kg/day for 16 weeks (up to 24 weeks); contemplated result
Experimental: Experimental Protocol. C57BL/6J mice are placed on an HFD containing 60% fat (by % Kcal) (Diet #D12492, Research Diets, Inc.) for a period of weeks (as determined by the results of Example 1) until development of NAFLD is observed and clearly distinguishable from LFD-fed mice of the same age (between 4-8 weeks). At the time or after NAFLD is observed, once daily ip injections of phenylmethimazole (i.e., C10), DMSO, or sham are administered. 5 mice are then euthanized weekly thereafter to characterize the effects of C10, DMSO, and/or sham on treatment of NAFLD for the period of 16 weeks post-initiation of C10, DMSO, and sham administration. The period of time for which treatment is administered will be extended to 24 weeks if no effect of C10 administration on treatment of NAFLD is observed. The following Table further illustrates the experimental design: […]
NAFLD is evaluated in the liver of the HFD mice macroscopically, microscopically, and molecularly. […] Then, the liver of each mouse is split in half, wherein one half is used for microscopic analysis of NAFLD and the remaining half is used for molecular analysis of NAFLD (i.e., quantification of triglycerides). Quantification of triglycerides is performed in accordance with the general protocol described in Example 1.

`Cn1c(-c2ccccc2)cnc1S` [phenylmethimazole, 5-Phenylmethimazole] was tested, and the “fatty liver disease, macroscopically observed in liver tissue” value ([1]; ip 0.1 mg/kg, 1 mg/kg or 10 mg/kg once daily for 18 weeks, compared to HFD mice with sham injection or DMSO) was “much less fatty liver disease despite obesity”, the “triglyceride concentration in liver tissue (FIG. 4)” value ([1]; ip 1 mg/kg or 10 mg/kg once daily for 18 weeks, compared to HFD mice with no phenylmethimazole) was “lower triglyceride concentration” and the “prevention of NAFLD” value ([1]; ip 0.1, 1, 10 mg/kg once daily for 18 weeks) was “prevented NAFLD in the mice fed the HFD in a dose-dependent manner”. For the same compound, the “fatty liver disease, microscopic observation of liver tissue (FIG. 3(B)-(D))” value ([1]; ip 0.1, 1 or 10 mg/kg once daily for 18 weeks, compared to HFD mice with sham injection or DMSO) was “much less fatty liver disease”, the “excess accumulation of fat in the liver” value [2] was “no excess accumulation of fat has occurred” and the “fat content in the patient's liver” value [3] was “reduced relative to the baseline level”. The “fat content in the liver tissue of the mice” value [4] was “reduced relative to a baseline level”.
